Source: patent US9738612B2, “Methylacryloyl benzimidazolone derivative and anti-tumour use thereof” (SHANGHAI NATURE STANDARD R&D AND BIOTECH CO., LTD, priority 2014, dated 2017)
pIC50: −log10 of the molar value.

What was measured:
[1] = test system: Akt phosphorylation at S473 site; test: ELISA (double antibody sandwich), Akt phosphorylation in IGF-1 stimulated A549 cells; format: cell-based; conditions: drug 1 h, then IGF-1 10 min, p-Akt (S473) ELISA
Procedure: Establishment of ELISA screening method using a double antibody sandwich method: A549 cells (a lung cancer cell line, purchased from Chinese Academy of Sciences, Shanghai Institutes for Biological Sciences Cell Resource Center) were inoculated at certain densities in 12-well plates, and incubated at 37° C. in a carbon dioxide incubator overnight to let cells attach the plate wells. Meanwhile the Akt antibody was inoculated at a specific concentration in a highly-adsorbed microplate, and placed in a refrigerator at 4° C. The 12-well plates were washed with sterile PBS three times, then into which serum-free F12 was added, and incubated for 24 hours in a incubator. Then MK2206, Triciribine and FD series drugs were added into 12-well plates and worked for one hour, followed by adding 100 ng of IGF-1 and being stimulated for 10 minutes. The 12-well plates were washed with pre-cooled PBS three times, and 100 μl of RIPA lysis buffer was added into each well to lyse cells on ice for 20 minutes. The lysates were collected and added to the appropriate microplate (purchased from Santa Cruz biotechnology), which were shaken on ice. A p-Akt (S473) antibody (purchased Cell Signaling Technology, Inc.) was added into microplates. After shaking for a period of time, an anti-rabbit antibody (purchased from Cell Signaling Technology, Inc.) was added. The reaction was terminated with 2M sulfuric acid after TMB developed. Absorbance at 450 nm was measured on a microplate reader, and the inhibitory rate=[…], among which ODsample refers to the absorbance of the sample well, ODIGF refers the absorbance of the well with IGF only, OD—IGF refers the absorbance of the well withoutIGF.

A549 = test: Sulforhodamine B proliferation; format: cell-based; conditions: Homo sapiens, A549, 72 h, SRB, read-out: Inhibitory rate % (A549)
Procedure: (§1) At a certain density cells were seeded in 96-well plates, and adhered overnight. The medium was discarded after incubating cells with compounds to be tested for 72 h, then 100μL/well trichloroacetic acid (TCA) was added to fix cells at 4° C. for 2h. After that the fixing solution was discarded. Cells were gently washed 5 times with distilled water, dried at room temperature. Cells were stained with 4 mg/mL SRB staining solution (100 μL/well) at room temperature for 15min. The staining solution was discarded, and cells were washed five times with 1% acetic acid (HAC) and dried at room temperature. To the plate tris base buffer (10 mM) was added at 150 μL/well and placed at room temperature for 15min. The OD values were measured at 540 nm wavelength in a microplate reader. Inhibitory rate (%)=(OD valuecontrol wells−OD valuedrugs treated wells)/OD valuecontrol wells×100%.
(§2) The results were shown in Table 2, the working concentrations of MK2206 and compounds of FD series were 10 μM. As shown in this Table, PC-3 is a prostate cancer cell line purchased from Cell Resource Center of Shanghai Institutes for Biological Sciences, Chinese Academy of Sciences, A549 is a lung cancer cell line purchased from Cell Resource Center of Shanghai Institutes for Biological Sciences, Chinese Academy of Sciences, and SGC-7901 is a gastric cancer cell line purchased from Cell Resource Center of Shanghai Institutes for Biological Sciences, Chinese Academy of Sciences.

PC-3 = test: Sulforhodamine B proliferation; format: cell-based; conditions: Homo sapiens, PC-3, 72 h, 72 h, SRB, read-out: Inhibitory rate % (PC-3)
Procedure: as §1, §2

SGC-7901 = test: Sulforhodamine B proliferation; format: cell-based; conditions: Homo sapiens, SGC-7901, 72 h, SRB, read-out: Inhibitory rate % (SGC-7901)
Procedure: as §1, §2

SGK(h) = test: Tumor-associated kinase inhibition test; format: biochemical, human; conditions: 10 μM
Text: (§3) Eurofins Pharma Discovery Services UK Limited completed and reported this experiment.

ALK(h) = target: T1, ALK(h) (Homo sapiens, UniProt Q9UM73); test: Tumor-associated kinase inhibition test; format: biochemical; conditions: read-out: Inhibitory rate (%)
T1 construct: purchased Eurofins Pharma Discovery Services UK Limited (contract assay service)
Text: as §3

PI3Kinase(p110α/p65α)(h) = target: T2, PI3Kinase(p110α/p65α)(h) (Homo sapiens, UniProt P42336); test: Tumor-associated kinase inhibition test; format: biochemical; conditions: read-out: Inhibitory rate (%)
T2 construct: purchased Eurofins Pharma Discovery Services UK Limited (contract assay)
Text: as §3

Rsk2(h) = target: T3, Rsk2(h) (Homo sapiens, UniProt P51812); test: Tumor-associated kinase inhibition test; format: biochemical; conditions: read-out: Inhibitory rate (%)
T3 construct: purchased Eurofins Pharma Discovery Services UK Limited
Text: as §3

Hela cell = test: Sulforhodamine B proliferation; format: cell-based; conditions: Homo sapiens, SRB method of Example 2, FIG. 3, read-out: Half inhibitory concentration to Hela cell proliferation
Procedure: as §1
(§4) In the present invention the inhibition of a representative compound FD162 to the proliferation of more than 20 tumor cell lines were tested, and the experimental methods were the same as that described in Example 2.

[2] = test system: more than 20 tumor cell lines; test: Proliferation of more than 20 tumor cell lines (FIG. 2); format: cell-based; conditions: FIG. 2, in words
Procedure: as §1, §4

Hela cells = test: Subcutaneous transplantation of Hela cells into nude mice; format: in vivo
Procedure: The method used herein for animal experiment was that using the subcutaneous transplantation of Hela cells into nude mice.
Tumor tissues at vigorous growth phase were cut into the size of about 1.5mm^3, and inoculated subcutaneously to the right armpit of nude mice under sterile condition. The diameters of subcutaneous xenograft tumors in nude mice were measured with a vernier caliper. The animals were randomly divided when the tumors grew to the sizes of 100-200 mm^3. FD162 was divided into three groups: 20mg/kg, 10mg/kg and 5mg/kg, with 9 mice per group; rapamycin was 10mg/kg; the model group was given saline. All treatments were intraperitoneally administered once a day for 12 days. Throughout the experiment, tumor diameters and body weights were measured simultaneously twice a week. Tumor volume (TV) was calculated as follows: TV=½×a×b2, where a, b respectively represents the length and width of tumors. […]

T2 sequence (P42336 whole entry): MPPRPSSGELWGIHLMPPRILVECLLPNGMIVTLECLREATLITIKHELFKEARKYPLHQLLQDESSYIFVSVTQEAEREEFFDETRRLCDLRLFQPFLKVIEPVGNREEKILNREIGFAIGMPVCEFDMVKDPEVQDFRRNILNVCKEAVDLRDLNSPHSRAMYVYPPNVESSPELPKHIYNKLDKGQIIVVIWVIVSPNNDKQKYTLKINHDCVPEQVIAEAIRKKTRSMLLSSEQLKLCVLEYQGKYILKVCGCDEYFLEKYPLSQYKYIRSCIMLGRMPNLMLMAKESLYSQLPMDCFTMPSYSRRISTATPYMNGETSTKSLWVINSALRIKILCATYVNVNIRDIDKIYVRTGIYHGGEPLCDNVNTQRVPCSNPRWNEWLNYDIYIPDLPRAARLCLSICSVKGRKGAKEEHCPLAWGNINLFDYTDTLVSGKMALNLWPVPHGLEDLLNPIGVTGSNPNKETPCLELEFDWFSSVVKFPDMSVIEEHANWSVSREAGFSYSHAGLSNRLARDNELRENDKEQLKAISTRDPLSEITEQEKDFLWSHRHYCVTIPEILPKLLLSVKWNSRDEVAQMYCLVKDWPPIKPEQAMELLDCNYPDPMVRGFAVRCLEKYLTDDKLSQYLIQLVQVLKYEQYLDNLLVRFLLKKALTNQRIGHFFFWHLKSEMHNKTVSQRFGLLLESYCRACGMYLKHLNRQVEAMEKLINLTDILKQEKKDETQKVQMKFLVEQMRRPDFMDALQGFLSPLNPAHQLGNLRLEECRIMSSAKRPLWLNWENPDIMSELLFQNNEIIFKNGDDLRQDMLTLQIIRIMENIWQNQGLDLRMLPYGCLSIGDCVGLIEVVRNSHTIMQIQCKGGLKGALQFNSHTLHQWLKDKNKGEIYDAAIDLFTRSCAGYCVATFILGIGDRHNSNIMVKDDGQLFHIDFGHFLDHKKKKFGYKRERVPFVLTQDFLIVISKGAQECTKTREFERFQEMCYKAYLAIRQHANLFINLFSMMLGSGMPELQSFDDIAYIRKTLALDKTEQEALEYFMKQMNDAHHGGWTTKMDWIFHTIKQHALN
T3 sequence (P51812 whole entry): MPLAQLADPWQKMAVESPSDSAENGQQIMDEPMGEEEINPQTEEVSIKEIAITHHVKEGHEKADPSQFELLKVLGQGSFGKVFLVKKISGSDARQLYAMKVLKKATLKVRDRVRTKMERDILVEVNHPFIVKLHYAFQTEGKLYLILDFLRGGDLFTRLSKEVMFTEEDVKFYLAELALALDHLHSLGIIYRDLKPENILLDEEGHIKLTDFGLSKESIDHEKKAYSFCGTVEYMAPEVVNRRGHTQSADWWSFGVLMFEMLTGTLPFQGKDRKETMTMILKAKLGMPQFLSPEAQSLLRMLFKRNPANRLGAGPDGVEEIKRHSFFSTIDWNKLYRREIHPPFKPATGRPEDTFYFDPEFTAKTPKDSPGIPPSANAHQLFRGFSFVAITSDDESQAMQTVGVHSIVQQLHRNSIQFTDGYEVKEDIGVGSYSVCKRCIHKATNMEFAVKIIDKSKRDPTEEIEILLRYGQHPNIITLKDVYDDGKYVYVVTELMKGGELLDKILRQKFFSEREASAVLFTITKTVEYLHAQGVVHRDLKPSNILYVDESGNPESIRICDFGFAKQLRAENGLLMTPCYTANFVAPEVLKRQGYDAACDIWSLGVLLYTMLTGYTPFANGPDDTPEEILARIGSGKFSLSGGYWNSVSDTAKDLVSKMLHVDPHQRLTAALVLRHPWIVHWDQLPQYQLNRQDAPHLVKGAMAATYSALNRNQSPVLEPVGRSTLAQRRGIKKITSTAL
T1 sequence (Q9UM73 19-1620): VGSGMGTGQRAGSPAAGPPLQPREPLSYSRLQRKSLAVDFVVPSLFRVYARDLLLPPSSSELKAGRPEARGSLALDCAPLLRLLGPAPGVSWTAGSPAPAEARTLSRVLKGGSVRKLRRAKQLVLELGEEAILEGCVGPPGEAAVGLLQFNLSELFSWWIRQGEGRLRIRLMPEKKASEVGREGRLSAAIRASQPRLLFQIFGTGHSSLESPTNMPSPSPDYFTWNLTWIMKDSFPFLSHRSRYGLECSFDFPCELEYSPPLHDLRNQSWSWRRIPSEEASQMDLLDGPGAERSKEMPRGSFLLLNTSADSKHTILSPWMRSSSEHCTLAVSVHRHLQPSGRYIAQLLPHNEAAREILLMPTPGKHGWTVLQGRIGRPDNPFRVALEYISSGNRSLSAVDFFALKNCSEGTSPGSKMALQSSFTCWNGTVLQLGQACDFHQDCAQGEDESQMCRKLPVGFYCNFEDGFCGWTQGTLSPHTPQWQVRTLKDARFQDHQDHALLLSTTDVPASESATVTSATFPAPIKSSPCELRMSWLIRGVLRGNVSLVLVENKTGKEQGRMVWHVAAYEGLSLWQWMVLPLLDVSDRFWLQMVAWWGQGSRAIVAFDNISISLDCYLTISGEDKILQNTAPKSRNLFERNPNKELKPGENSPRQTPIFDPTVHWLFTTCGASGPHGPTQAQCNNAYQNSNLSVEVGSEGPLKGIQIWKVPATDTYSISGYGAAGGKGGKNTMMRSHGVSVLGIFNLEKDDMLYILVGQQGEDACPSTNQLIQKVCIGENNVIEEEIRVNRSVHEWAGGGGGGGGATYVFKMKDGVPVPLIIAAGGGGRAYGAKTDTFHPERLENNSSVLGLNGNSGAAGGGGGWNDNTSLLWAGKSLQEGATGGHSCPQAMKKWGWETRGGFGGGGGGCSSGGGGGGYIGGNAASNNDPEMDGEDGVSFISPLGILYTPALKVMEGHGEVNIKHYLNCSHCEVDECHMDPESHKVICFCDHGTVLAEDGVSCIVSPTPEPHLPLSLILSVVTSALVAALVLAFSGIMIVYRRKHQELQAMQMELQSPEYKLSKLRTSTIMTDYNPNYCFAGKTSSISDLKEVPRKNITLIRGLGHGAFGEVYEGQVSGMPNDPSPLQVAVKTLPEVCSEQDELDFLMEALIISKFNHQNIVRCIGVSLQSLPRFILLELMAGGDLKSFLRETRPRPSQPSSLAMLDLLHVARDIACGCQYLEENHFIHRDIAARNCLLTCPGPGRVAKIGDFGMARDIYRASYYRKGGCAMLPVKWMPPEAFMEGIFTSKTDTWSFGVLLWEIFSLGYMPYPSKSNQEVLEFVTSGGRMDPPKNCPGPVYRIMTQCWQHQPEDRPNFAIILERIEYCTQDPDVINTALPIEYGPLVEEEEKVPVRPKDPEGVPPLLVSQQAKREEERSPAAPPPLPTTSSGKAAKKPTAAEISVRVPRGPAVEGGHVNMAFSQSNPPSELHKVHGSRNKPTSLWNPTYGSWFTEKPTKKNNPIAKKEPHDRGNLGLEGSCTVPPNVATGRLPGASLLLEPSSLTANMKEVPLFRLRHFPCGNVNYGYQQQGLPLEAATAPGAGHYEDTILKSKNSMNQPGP

- Inhibitory rate (%) (SGK(h)): −4%
- inhibition at 10 µM (ALK(h)): 16%
- inhibition at 10 µM (PI3Kinase(p110α/p65α)(h)): 3%
- inhibition at 10 µM (Rsk2(h)): 4%
- pIC50 (Hela cell): 5.44
Compound: C=C(C)n1c(=O)n(C(C)=O)c2ncc(Br)cc21 [FD162]
- Inhibitory rate % (Akt phosphorylation) [1]: 91%
- inhibition at 10 µM (A549): 12.1%
- inhibition at 10 µM (PC-3): 62.4%
- inhibition at 10 µM (SGC-7901): 70.2%
- Inhibition of proliferation of tumor cell lines [2]: widespread inhibitory effects
- Tumor inhibitory rate (Hela cells; 10 mg/kg intraperitoneally once a day for 12 days, Hela xenograft in nude mice): greater than 50%
- Tumor inhibiting effect compared with positive control group (rapamycin 10mg/kg) (Hela cells; middle dose (10 mg/kg), i.p., 12 days, FIG. 5, in words): better than the positive control group
